Read-outs that look alike come from different tables or passages of the source.
How the values were obtained:
leishmaniasis = settings: cited from earlier work
[1] = system: Leishmania infantum (MHOM/MA/67/ITMA-P263) promastigotes; assay: Resazurin / Alamar Blue viability assay on promastigotes; assay type: cell-based; settings: for parasite viability: SPT above 100 μM
Description: Leishmania infantum (MHOM/MA/67/ITMA-P263) promastigotes are incubated in RPMI medium (heat inactivated 10% fetal bovine serum, 2 mM L-glutamine, 20 mM HEPES, 100 U/ml penicillin, 100 μg/ml streptomycin) at 27° C. Parasites reaching the logarithmic phase (10^6/ml) are made infective.
Leishmania parasites are incubated in culture medium and the effect of SPT on the proliferation of their promastigotes is analyzed. In summary, Leishmania infantum (MHOM/MA/67/ITMA-P263) promastigotes are incubated in RPMI medium (heat inactivated 10% fetal bovine serum, 2 mM L-glutamine, 20 mM Hepes, 100 U/ml penicillin, 100 μg/ml streptomycin) at 27° C. […] The viability of the parasites is determined by applying Alamar Blue assay. By obtaining IC50 values from the samples whose fluorescence intensities are read according to the Alamar Blue assay protocol, the activities of SPT are determined.

[2] = system: L. infantum promastigotes; assay: Mitochondrial membrane potential, Rhodamine 123; assay type: cell-based, Leishmania infantum
Description: Mitochondrial membrane potential (ΔΨPm) is measured by using Rhodamine 123 mitochondrial specific fluorescent dye (Sigma-Aldrich). In summary, cells were seeded in a 48-well plate at 300.000 parasites/well. The following day, parasites are treated with SPT at various concentrations (50-400 uM) for 24 and 48 hours. After incubation, cells are resuspended in serum-free RPMI containing 10 μM Rhodamine 123 and incubated in the dark at 37-C for 30 minutes. They are then centrifuged and washed twice with 1×DPBS. The cell suspension is transferred to a 96-well plate and fluorescence intensities are measured at 490 nm excitation and 515 nm emission by using a spectrophoto-fluorimeter (Varioskan LUX multimode reader, Thermo Scientific). Absorbance is evaluated as a fold change with respect to the negative control group.

[3] = system: macrophages infected with L. infantum; assay: Infection rate of infected macrophages by flow cytometry; assay type: cell-based, Leishmania infantum; settings: SPT 50, 75, 100, 150, 200 and 400 μM; 24, 48 and 72 hours
Description: RAW264.7 macrophage cells and L. infantum promastigotes were stained with PKH26 (Red Fluorescent Cell Linker Kit, Sigma-Aldrich) and PKH67 (Green Fluorescent Cell Linker Kit, Sigma-Aldrich), respectively, according to the procedure described previously in the article by Islek et al. (2021). A total cell concentration of 10^7 cells/ml was used. Before infection, the staining rate of parasites and cells was determined by flow cytometry.
The effect of SPT on the proliferation of macrophage cells infected with parasites is analyzed. In summary, macrophages are infected with parasites at 37° C. at a ratio of 10:1 (parasite: macrophage). After 3 and a half hours, infected macrophages are washed with medium to remove the remaining parasites. Infected macrophages are left to incubate with SPT at different concentration ranges at 37° C. for 3 days, fixed at the end of 3 days and the infection rate is determined by flow cytometer. The percentage of infection is determined according to the following formula: […]

[4] = system: L. infantum promastigotes; assay: Phase-contrast and SEM morphology of parasites; assay type: cell-based, Leishmania infantum; settings: 24 and 48 hours of incubation with SPT
Description: In parallel to this, Leishmania parasites incubated with SPT at different concentrations were morphologically examined under scanning electron microscopy.

Question: For `C[C@@H]1[C@H](O)[C@@H](C)/C=C/C=C/C=C/C=C/C=C/C=C/C=C/[C@H](O[C@@H]2O[C@H](C)[C@@H](O)[C@H](N)[C@@H]2O)C[C@@H]2O[C@](O)(C[C@@H](O)C[C@@H](O)[C@H](O)CC[C@@H](O)C[C@@H](O)CC(=O)O[C@H]1C)C[C@H](O)[C@H]2C(=O)O` [Amphotericin B], which “cure (comparison data)” value (leishmaniasis; 6-month therapy) is on record?
Answer: 97%

Question: And the cure rate (leishmaniasis; cases where antimonial resistance is observed)?
Answer: ~100%

Question: For `CCCCCCCCCCCCCCCCOP(=O)([O-])OCC[N+](C)(C)C` [Miltefosine], which “cure (comparison data)” value (leishmaniasis; miltefosine data compared with 6-month Amphotericin B therapy) is on record?
Answer: 94%

Question: And the cure level (leishmaniasis; oral, 3-4-week treatment)?
Answer: 95-100%

Question: Which results are given for `O.O.O.O.[Na+].[O-]B1OO1` [SPT, sodium perborate tetrahydrate]?
Answer: IC50 ([1]; 72 hours): 72 ± 7.51 µM; cell viability ([1]; SPT 75 μM, 24 hours): below 80%; cell viability ([1]; SPT 75 μM, 48 hours): < 55%; viability of promastigotes ([1]; SPT 75 μM, 72 hours): 50%; reduction in parasite viability ([1]; SPT 100, 125, 150 and 200 μM, 72 hours): approximately 80%; parasite viability ([1]; 24 hours): < 33%; parasite viability ([1]; 48 hours): < 25%; cell viability ([1]; SPT ≤50 uM, 24, 48 and 72 hours): above 80%; mitochondrial membrane potential ([2]; SPT 100 μM, 24 hours): 52.2%; mitochondrial membrane potential ([2]; SPT 100 μM, 48 hours): 32.8%; mitochondrial membrane potential ([2]; SPT 150 μM, 24 hours): 39.1%; mitochondrial membrane potential ([2]; SPT 150 μM, 48 hours): 34.1%; mitochondrial membrane potential ([2]; SPT 200 μM, 24 hours): 57.5%; mitochondrial membrane potential ([2]; SPT 200 μM, 48 hours): 41.5%; mitochondrial membrane potential ([2]; SPT 400 μM, 24 hours): 44.6%; mitochondrial membrane potential ([2]; SPT 400 μM, 48 hours): 30.1%; percentage of mitochondrial membrane potential ([2]; SPT ≤75 uM, 24 and 48 hours): above 80%; mitochondrial membrane potential ([2]; SPT ≥100 μM, 24 hours): below 53%; mitochondrial membrane potential ([2]; SPT ≥100 μM, 48 hours): below 35%; infection rate [3]: infection rate did not increase regardless of time and concentration; cell number and morphology by microscopy [4]: dose-dependent decrease in cell number
